From ChEMBL document CHEMBL1132046, “Novel bisbenzamidines and bisbenzimidazolines as noncompetitive NMDA receptor antagonists” (Bioorg Med Chem Lett, 1999) come the findings set out here.

One test addresses Glutamate NMDA receptor. As to the kind of experiment: Inhibition of [3H]dizocilpine binding to N-methyl-D-aspartate (NMDA) receptor complex in rat brain membranes. In kind it is cell membranes.
The species named for test [1] is Rattus norvegicus. As to the kind of experiment: Inhibitory activity (0.1 uM) against NMDA (30 uM) and glycine (10 uM) induced increase in [Ca2+]i in cultured forebrain neurons from fetal rat. In kind it is functional. More on the design: scale not given: the % may be the effect or the level left.
The species entered for test [2] is Rattus norvegicus. As to the kind of experiment: Protective potency against glutamate-induced neurotoxicity in cultures of embryonic rat brain at a compound concentration of 10 uM. The test is classed as functional.
The species named for test [3] is Rattus norvegicus. As to the kind of experiment: Inhibitory activity (1.0 uM) against NMDA (30 uM) and glycine (10 uM) induced increase in [Ca2+]i in cultured forebrain neurons from fetal rat. In kind it is functional. The arrangement: scale not given: the % may be the effect or the level left.
The species named for test [4] is Rattus norvegicus. Description: Protective potency against glutamate-induced neurotoxicity in cultures of embryonic rat brain at a concentration of 100 uM+Glutamate (100 uM). The test is classed as functional.
The species entered for test [5] is Rattus norvegicus. As to the kind of experiment: Protective potency against glutamate-induced neurotoxicity in cultures of embryonic rat brain at a compound concentration of 10 uM+Glutamate (100 uM). In kind it is functional.
The species entered for test [6] is Rattus norvegicus. As to the kind of experiment: Protective potency against glutamate-induced neurotoxicity in cultures of embryonic rat brain at a compound concentration of 100 uM. In kind it is functional.
Test [7] is filed under the species Rattus norvegicus. Description: Inhibitory activity (10.0 uM) against NMDA (30 uM) and glycine (10 uM) induced increase in [Ca2+]i in cultured forebrain neurons from fetal rat. In kind it is functional. The arrangement: scale not given: the % may be the effect or the level left.
Test [8] is filed under the species Rattus norvegicus. Description: Protective potency against glutamate-induced neurotoxicity in cultures of embryonic rat brain at a concentration of 100 uM (p < 0.05). The test is classed as functional.

SMILES strings stand for the structures.

In the case of `N#Cc1ccc(N2CCCN(c3ccc(C#N)cc3)CC2)cc1`, the IC50 at Glutamate NMDA receptor came to 45.8 µM.

On to `C(=C1/CCCN(c2ccc(C3=NCCN3)cc2)C1)/c1ccc(C2=NCCN2)cc1`, for which the concentration for half-maximal inhibition (IC50) on Glutamate NMDA receptor worked out at 8.35 µM.

As to `c1cc(C2=NCCN2)ccc1OC[C@@H]1C[C@H]1COc1ccc(C2=NCCN2)cc1`, the half-inhibitory concentration (IC50) at Glutamate NMDA receptor turned out to be 16.5 µM.

In turn, `N=C(N)c1ccc(OC[C@@H]2C[C@H]2COc2ccc(C(=N)N)cc2)cc1` returned a half-inhibitory concentration (IC50) on Glutamate NMDA receptor of 11.7 µM.

Turning to `N=C(N)c1ccc(N2CCCN(c3ccc(C(=N)N)cc3)CC2)cc1`, the Activity in the test listed under Rattus norvegicus [1] is recorded as 111.26%; in the test filed under Rattus norvegicus [2], 100%; in the test listed under Rattus norvegicus [3], 67.04%; in the test filed under Rattus norvegicus [4], 98%; in the test filed under Rattus norvegicus [5], 99%; in the test filed under Rattus norvegicus [6] it was 87%. This compound came in with an Activity in the test listed under Rattus norvegicus [7] of 37.58%. Moreover, the 50% inhibitory concentration (IC50) at Glutamate NMDA receptor stood at 1.19 µM.

`C(=C1CCN(Cc2ccc(C3=NCCN3)cc2)CC1)c1ccc(C2=NCCN2)cc1` registered a concentration for half-maximal inhibition (IC50) on Glutamate NMDA receptor of 35.6 µM.

For the compound `c1cc(N2CCN(c3ccc(C4=NCCN4)cc3)CC2)ccc1C1=NCCN1`, the concentration for half-maximal inhibition (IC50) on Glutamate NMDA receptor was 18.2 µM.

Turning to `N=C(N)c1ccc(N2CCN(c3ccc(C(=N)N)cc3)CC2)cc1`, the IC50 at Glutamate NMDA receptor was 5.32 µM.

At Glutamate NMDA receptor, `c1cc(N2CCCN(c3ccc(C4=NCCN4)cc3)CC2)ccc1C1=NCCN1` had a concentration for half-maximal inhibition (IC50) of 4.99 µM.

`N=C(N)c1ccc(NC(=O)c2cccc(C(=O)Nc3ccc(C(=N)N)cc3)c2)cc1` registered an IC50 on Glutamate NMDA receptor above 200 µM.

`c1cc(C2=NCCN2)ccc1CC1CCN(c2ccc(C3=NCCN3)cc2)CC1` had a concentration for half-maximal inhibition (IC50) on Glutamate NMDA receptor of 6.29 µM.

Take `c1cc(C2=NCCN2)ccc1CC1CCCN(c2ccc(C3=NCCN3)cc2)C1` (configuration not stated): the IC50 on Glutamate NMDA receptor worked out at 7.84 µM.

Consider `N=C(N)c1ccc(NC(=O)c2cccc(C(=O)Nc3ccc(C(=N)N)cc3)n2)cc1`, for which the half-inhibitory concentration (IC50) at Glutamate NMDA receptor is 66 µM.

Take `N[C@@H](CCC(=O)O)C(=O)O` [GLUTAMIC ACID]: the Activity in the test filed under Rattus norvegicus [8] was determined as 60%.

Turning to `N=C(N)c1ccc(OCCCCCOc2ccc(C(=N)N)cc2)cc1` [PENTAMIDINE], the IC50 on Glutamate NMDA receptor turned out to be 2.59 µM.

For orientation: IC50 means the midpoint of a concentration-inhibition curve.
